# Data: patent US12622890B2, “Use of the active compound in the prevention or treatment of ovarian dysfunction diseases” (INSTITUTE OF BIOPHYSICS, CHINESE ACADEMY OF SCIENCES, priority 2022, dated 2026)
# Tests used:
# ovarian tissues = assay: RNA transcription level sequencing of ovarian tissues, differentially expressed genes; assay type: in vivo, mice; details: ovarian tissue RNA sequencing, FC>2, Q<0.05
# Description: Mice were sacrificed after various treatments, and ovarian tissues were taken, snap-frozen in liquid nitrogen, stored at −80° C., and sent to Annoroad for RNA transcription level sequencing. Bioinformatics analysis and mapping were performed on the sequencing results. […] The differential genes of the three treatment groups were intersectioned. […] These differential gene sets were then subjected to Gene Ontology function (GO) enrichment (FC>2, Q<0.05) (FIG. 16) and signaling pathway (KEGG) analysis mapping (FIG. 17), respectively.
# POI mice = assay: Serum malondialdehyde (MDA) level, oxidative stress; assay type: in vivo
# Text: Biomarkers mentioned herein, such as follicle stimulating hormone (FSH), estrogen (e.g., E2), and superoxide dismutase (SOD), malondialdehyde (MDA), relative reactive oxygen species (ROS), and lactate dehydrogenase (LDH), etc., can be detected using methods commonly known in the field. Detection methods typically cover methods that quantify the level of a biomarker in a sample (quantitative methods). Which of the following methods are suitable for qualitative and/or quantitative detection of biomarkers is generally known to those skilled in the field. Samples can be conveniently measured, for example for proteins using immunoassays such as ELISA, RIA, etc., which are commercially available.
# (§1) After 12 days of administration, half of the mice in each group were sacrificed, and their blood was collected and kept still. The serum was separated after centrifugation at 4500 rpm and stored in a refrigerator at −80° C. for future use to measure levels of follicle stimulating hormone, estrogen, and the indexes of oxidative stress such as superoxide dismutase (SOD) and malondial dehyde (MDA).
# as §1, with “kept in” for “kept”, “levals” for “levels”, “malondialdehyde” for “malondial dehyde”
# The oxidative stress hypothesis believes that the reduction of antioxidant components in the body leads to the weakening of the ability to remove free radicals, which leads to oxidative damage of biological macromolecules, and the imbalance of cellular oxidative and antioxidant functions, which leads to oxidative stress, and then leads to disease and aging. Oxygen free radicals act on unsaturated fatty acids of lipids to generate lipid peroxides, including malondialdehyde (MDA) and so on. The antioxidant defense system of scavenging free radicals includes superoxide dismutase (SOD) and so on. Recently, oxidative stress has been reported to be associated with ovarian aging and POI in primates. Therefore, this embodiment examined the effects of DMF, HDCA, and DMF+HDCA on oxidative stress in mice with premature ovarian failure, and the results are shown in Table 5, FIGS. 9 to 12.
# POI model mice [1] = assay: Estrous cycle observation by vaginal smear cytology in POI model mice; assay type: in vivo
# Description: Cytological observation of vaginal smear was performed daily.
# The vagina of mice was exposed, and about 30 μl of normal saline was dripped into the vagina, gently aspirated onto the slide, and observed under the microscope. Staining was performed when necessary, fixed with 95% ethanol for 10 minutes, stained with hematoxylin in aqueous solution for 5-8 minutes, washed with running water for color separation, and then stained with eosin for 3 minutes. After drying. the slices were sealed with neutral gum.
# The vagina of mice was exposed, and about 30 μl of normal saline was dripped into the vagina, gently aspirated onto the slide, and observed under the microscope. Staining was performed when necessary, stained with hematoxylin in aqueous solution for several minutes after drying, washed with running water for color separation, and then stained with alchhol eosin for several seconds. The slices were sealed with neutral gum.
# During the estrous cycle, a series of histological and physiological changes occur in the reproductive and endocrine systems of mice. According to these changes, the estrous cycle can be divided into proestrous (P), estrous (E), metestrum (M) and diestrum (D). • 1. Observation of estrous cycle in mice of Example 1
# After modeling and treatment, there were 6 mice left in the normal saline group, 6 mice left in the sodium fumarate treatment group, 7 mice left in the hyodeoxycholic acid group, and 7 mice left in the sodium fumarate and hyodeoxycholic acid combination group. […] The estrous cycle was divided into four periods (P: proestrous; E: estrous period; M: metestrum; D: diestrum) for vaginal smear cytological observation, the results are shown in FIG. 3.
# The estrous cycle of mice was plotted according to the cytological results of vaginal smears observed for 12 consecutive days, and the results are shown in FIG. 4. The estrous cycle of mice is about 4 to 5 days, which is divided into four periods alternately. […] The estrous cycle of 4 mice was recovered in sodium fumarate treatment group. The estrous cycle of 3 mice was recovered in HDCA group. The estrous cycle of 6 mice was recovered in group treated with SF and HDCA.
# POI model mice [2] = assay: as above; assay type: in vivo; remark: listed apart in the source
# [3] = Example 1, during drug administration, FIG. 4B
# [4] = Example 2, during drug administration, FIG. 5B
smiles,measurement,setting,value
"C[C@H](CCC(=O)O)[C@H]1CC[C@H]2[C@@H]3C[C@H](O)[C@@H]4C[C@H](O)CC[C@]4(C)[C@H]3CC[C@]12C [HDCA, hyodeoxycholic acid, reference compound]",Number of genes down-regulated compared with the control group,ovarian tissues,4749 genes
same,Number of genes up-regulated compared with the control group,ovarian tissues,1898 genes
same,MDA activity compared with the normal saline group,"POI mice; FIG. 10, no significant difference",reduced to some extent
same,MDA,"POI mice; serum, POI mice after treatment",2.86 ± 4.39 nmol/mL
same,Effect on mice with premature ovarian failure (conclusion from estrous cycle),POI model mice [1]; Example 1,preventive and therapeutic effects
same,Average rate of diestrum (D) in estrous cycle,POI model mice [1]; [3],39.29%
same,Average rate of estrous stage (E) in estrous cycle,POI model mice [1]; [3],22.62%
same,Average rate of metestrum (M) in estrous cycle,POI model mice [1]; [3],14.29%
same,Average rate of proestrous (P) in estrous cycle,POI model mice [1]; [3],23.81%
same,Number of mice with estrous cycle recovered,"POI model mice [1]; Example 1, 12 days observation, 6 SF, 7 HDCA, 7 SF and HDCA mice left",3 mice
same,Effect on mice with premature ovarian failure (conclusion from estrous cycle),POI model mice [2]; Example 2,preventive and therapeutic effects
same,Average rate of diestrum (D) in estrous cycle,POI model mice [2]; [4],52.08%
same,Average rate of estrous (E) stage in estrous cycle,POI model mice [2]; [4],6.25%
same,Average rate of metestrum (M) in estrous cycle,POI model mice [2]; [4],12.50%
same,Average rate of proestrous (P) in estrous cycle,POI model mice [2]; [4],29.17%
same,Number of mice with estrous cycle recovered,"POI model mice [2]; Example 2, 12 days observation, DMF n=5, HDCA n=6, DMF and HDCA n=7",3 mice
